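Following 48 hours of exposure in 96-well plates, responses at five concentrations were used to interpolate endpoints linearly. GI50: concentration for 50% inhibition of growth. Definition used: TGI = concentration required for complete inhibition of growth.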
Assays:
Assay in all cases: NCI tumour cell line growth inhibition, 48 h
HCT-116 colon = test system: HCT-116 colon
A498 renal = test system: A498 renal
NCI-H522 lung = test system: NCI-H522 lung
BT-549 breast = test system: BT-549 breast
MDA-MB-231 breast = test system: MDA-MB-231 breast
786-0 renal = test system: 786-0 renal
RXF 393 renal = test system: RXF 393 renal
NCI/ADR-RES ovarian = test system: NCI/ADR-RES ovarian
CAKI-1 renal = test system: CAKI-1 renal
SK-OV-3 ovarian = test system: SK-OV-3 ovarian
U251 CNS = test system: U251 CNS
MALME-3M melanoma = test system: MALME-3M melanoma
SF-539 CNS = test system: SF-539 CNS
COLO 205 colon = test system: COLO 205 colon
SF-295 CNS = test system: SF-295 CNS
CCRF-CEM leukemia = test system: CCRF-CEM leukemia
RPMI-8226 leukemia = test system: RPMI-8226 leukemia
SK-MEL-5 melanoma = test system: SK-MEL-5 melanoma
M14 melanoma = test system: M14 melanoma
HS 578T breast = test system: HS 578T breast
ACHN renal = test system: ACHN renal
OVCAR-3 ovarian = test system: OVCAR-3 ovarian
MCF7 breast = test system: MCF7 breast
HT29 colon = test system: HT29 colon
HCC-2998 colon = test system: HCC-2998 colon
SK-MEL-28 melanoma = test system: SK-MEL-28 melanoma
OVCAR-8 ovarian = test system: OVCAR-8 ovarian
MOLT-4 leukemia = test system: MOLT-4 leukemia
TK-10 renal = test system: TK-10 renal
HCT-15 colon = test system: HCT-15 colon
NCI-H226 lung = test system: NCI-H226 lung
A549 NSCLC = test system: A549 NSCLC
EKVX NSCLC = test system: EKVX NSCLC
UO-31 renal = test system: UO-31 renal
PC-3 prostate = test system: PC-3 prostate
SNB-19 CNS = test system: SNB-19 CNS
OVCAR-5 ovarian = test system: OVCAR-5 ovarian
NCI-H23 lung = test system: NCI-H23 lung
OVCAR-4 ovarian = test system: OVCAR-4 ovarian
LOX IMVI melanoma = test system: LOX IMVI melanoma
UACC-257 melanoma = test system: UACC-257 melanoma
UACC-62 melanoma = test system: UACC-62 melanoma
HOP-92 NSCLC = test system: HOP-92 NSCLC
SW-620 colon = test system: SW-620 colon
SN12C renal = test system: SN12C renal
MDA-MB-435 = test system: MDA-MB-435
SNB-75 CNS = test system: SNB-75 CNS
SR leukemia = test system: SR leukemia
DU-145 prostate = test system: DU-145 prostate
NCI-H460 lung = test system: NCI-H460 lung
HOP-62 NSCLC = test system: HOP-62 NSCLC
T-47D breast = test system: T-47D breast
KM12 colon = test system: KM12 colon
SF-268 CNS = test system: SF-268 CNS
IGROV1 ovarian = test system: IGROV1 ovarian
SK-MEL-2 melanoma = test system: SK-MEL-2 melanoma
K-562 leukemia = test system: K-562 leukemia
HL-60(TB) leukemia = test system: HL-60(TB) leukemia

Compound: C=C1c2ccoc2C[C@H]2[C@H]1CC[C@@]1(O)[C@@](C)(C(=O)OC)CCC[C@]21C
- GI50 (HCT-116 colon): 15.7 µM
- TGI (HCT-116 colon): 31.2 µM
- GI50 (A498 renal): 21.9 µM
- TGI (A498 renal): 40.8 µM
- GI50 (NCI-H522 lung): 17.5 µM
- TGI (NCI-H522 lung): 54 µM
- GI50 (BT-549 breast): 26 µM
- TGI (BT-549 breast): 60.3 µM
- GI50 (MDA-MB-231 breast): 36.6 µM
- TGI (MDA-MB-231 breast): > 100 µM
- GI50 (786-0 renal): 40.1 µM
- TGI (786-0 renal): > 100 µM
- GI50 (RXF 393 renal): 48 µM
- TGI (RXF 393 renal): > 100 µM
- GI50 (NCI/ADR-RES ovarian): 42.5 µM
- TGI (NCI/ADR-RES ovarian): > 100 µM
- GI50 (CAKI-1 renal): 50.2 µM
- TGI (CAKI-1 renal): > 100 µM
- GI50 (SK-OV-3 ovarian): > 100 µM
- TGI (SK-OV-3 ovarian): > 100 µM
- GI50 (U251 CNS): 42.4 µM
- TGI (U251 CNS): > 100 µM
- GI50 (MALME-3M melanoma): 22.1 µM
- TGI (MALME-3M melanoma): 56.2 µM
- GI50 (SF-539 CNS): 69.3 µM
- TGI (SF-539 CNS): > 100 µM
- GI50 (COLO 205 colon): 20 µM
- TGI (COLO 205 colon): 55 µM
- GI50 (SF-295 CNS): 27.9 µM
- TGI (SF-295 CNS): 81.9 µM
- GI50 (CCRF-CEM leukemia): 23.5 µM
- TGI (CCRF-CEM leukemia): 60.1 µM
- GI50 (RPMI-8226 leukemia): 21.5 µM
- TGI (RPMI-8226 leukemia): 54 µM
- GI50 (SK-MEL-5 melanoma): 18.1 µM
- TGI (SK-MEL-5 melanoma): 37.8 µM
- GI50 (M14 melanoma): 29.3 µM
- TGI (M14 melanoma): 82.6 µM
- GI50 (HS 578T breast): 71.9 µM
- TGI (HS 578T breast): > 100 µM
- GI50 (ACHN renal): 16 µM
- TGI (ACHN renal): 40.9 µM
- GI50 (OVCAR-3 ovarian): 17.4 µM
- TGI (OVCAR-3 ovarian): 43.3 µM
- GI50 (MCF7 breast): 9.51 µM
- TGI (MCF7 breast): > 100 µM
- GI50 (HT29 colon): 17.5 µM
- TGI (HT29 colon): 81.6 µM
- GI50 (HCC-2998 colon): 29.4 µM
- TGI (HCC-2998 colon): 71 µM
- GI50 (SK-MEL-28 melanoma): 54.2 µM
- TGI (SK-MEL-28 melanoma): > 100 µM
- GI50 (OVCAR-8 ovarian): > 100 µM
- TGI (OVCAR-8 ovarian): > 100 µM
- GI50 (MOLT-4 leukemia): 15.6 µM
- TGI (MOLT-4 leukemia): 43.3 µM
- GI50 (TK-10 renal): > 100 µM
- TGI (TK-10 renal): > 100 µM
- GI50 (HCT-15 colon): 24.9 µM
- TGI (HCT-15 colon): 64.9 µM
- GI50 (NCI-H226 lung): 18.1 µM
- TGI (NCI-H226 lung): 56.2 µM
- GI50 (A549 NSCLC): 25.5 µM
- TGI (A549 NSCLC): > 100 µM
- GI50 (EKVX NSCLC): 37 µM
- TGI (EKVX NSCLC): > 100 µM
- GI50 (UO-31 renal): 33.9 µM
- TGI (UO-31 renal): > 100 µM
- GI50 (PC-3 prostate): 27.6 µM
- TGI (PC-3 prostate): > 100 µM
- GI50 (SNB-19 CNS): 62.1 µM
- TGI (SNB-19 CNS): > 100 µM
- GI50 (OVCAR-5 ovarian): > 100 µM
- TGI (OVCAR-5 ovarian): > 100 µM
- GI50 (NCI-H23 lung): 44.4 µM
- TGI (NCI-H23 lung): > 100 µM
- GI50 (OVCAR-4 ovarian): 86.5 µM
- TGI (OVCAR-4 ovarian): > 100 µM
- GI50 (LOX IMVI melanoma): 17.6 µM
- TGI (LOX IMVI melanoma): 36.7 µM
- GI50 (UACC-257 melanoma): 35.7 µM
- TGI (UACC-257 melanoma): > 100 µM
- GI50 (UACC-62 melanoma): 13.7 µM
- TGI (UACC-62 melanoma): 30.7 µM
- GI50 (HOP-92 NSCLC): 14.6 µM
- TGI (HOP-92 NSCLC): 57.1 µM
- GI50 (SW-620 colon): 29.8 µM
- TGI (SW-620 colon): 85.5 µM
- GI50 (SN12C renal): 16.9 µM
- TGI (SN12C renal): 34 µM
- GI50 (MDA-MB-435): 23.9 µM
- TGI (MDA-MB-435): 54.3 µM
- GI50 (SNB-75 CNS): > 100 µM
- TGI (SNB-75 CNS): > 100 µM
- GI50 (SR leukemia): 13.1 µM
- TGI (SR leukemia): 31.6 µM
- GI50 (DU-145 prostate): 38.4 µM
- TGI (DU-145 prostate): > 100 µM
- GI50 (NCI-H460 lung): 18 µM
- TGI (NCI-H460 lung): 49.9 µM
- GI50 (HOP-62 NSCLC): 40.7 µM
- TGI (HOP-62 NSCLC): > 100 µM
- GI50 (T-47D breast): 27.3 µM
- TGI (T-47D breast): > 100 µM
- GI50 (KM12 colon): 25.6 µM
- TGI (KM12 colon): 89.7 µM
- GI50 (SF-268 CNS): 22.7 µM
- TGI (SF-268 CNS): 73.5 µM
- GI50 (IGROV1 ovarian): 11.2 µM
- TGI (IGROV1 ovarian): 38.4 µM
- GI50 (SK-MEL-2 melanoma): 19 µM
- TGI (SK-MEL-2 melanoma): 42.2 µM

Compound: O=CN1CCN(C(=O)c2ccc(Cl)c(Cl)c2)C1=S
- TGI (HCT-116 colon): 30.1 µM
- TGI (A498 renal): 29.8 µM
- TGI (NCI-H522 lung): 28.7 µM
- TGI (BT-549 breast): 33.7 µM
- TGI (MDA-MB-231 breast): 30.8 µM
- TGI (786-0 renal): 17.6 µM
- TGI (RXF 393 renal): 35 µM
- TGI (NCI/ADR-RES ovarian): > 100 µM
- TGI (CAKI-1 renal): 28.1 µM
- TGI (K-562 leukemia): > 100 µM
- TGI (SK-OV-3 ovarian): 32.9 µM
- TGI (U251 CNS): 28 µM
- TGI (MALME-3M melanoma): 39.1 µM
- TGI (SF-539 CNS): 37 µM
- TGI (COLO 205 colon): 37.8 µM
- TGI (SF-295 CNS): 34.4 µM
- TGI (CCRF-CEM leukemia): 24.2 µM
- TGI (RPMI-8226 leukemia): 7.74 µM
- TGI (M14 melanoma): 31.4 µM
- TGI (HS 578T breast): > 100 µM
- TGI (ACHN renal): 31.6 µM
- TGI (OVCAR-3 ovarian): 28.3 µM
- TGI (MCF7 breast): 25 µM
- TGI (HT29 colon): 38.4 µM
- TGI (HCC-2998 colon): 32.7 µM
- TGI (SK-MEL-28 melanoma): 38.3 µM
- TGI (OVCAR-8 ovarian): 29.4 µM
- TGI (MOLT-4 leukemia): 53.8 µM
- TGI (TK-10 renal): 30.1 µM
- TGI (HCT-15 colon): 43 µM
- TGI (NCI-H226 lung): 39.8 µM
- TGI (A549 NSCLC): 35 µM
- TGI (EKVX NSCLC): 31.7 µM
- TGI (HL-60(TB) leukemia): 45.7 µM
- TGI (PC-3 prostate): 31.9 µM
- TGI (SNB-19 CNS): 31.7 µM
- TGI (OVCAR-5 ovarian): 32.4 µM
- TGI (NCI-H23 lung): 41 µM
- TGI (OVCAR-4 ovarian): 33.6 µM
- TGI (LOX IMVI melanoma): 25.9 µM
- TGI (UACC-257 melanoma): 31.7 µM
- TGI (UACC-62 melanoma): 30.4 µM
- TGI (SW-620 colon): 42.1 µM
- TGI (SN12C renal): 27.8 µM
- TGI (MDA-MB-435): 31.8 µM
- TGI (SNB-75 CNS): 32.3 µM
- TGI (DU-145 prostate): 30.9 µM
- TGI (NCI-H460 lung): 36.2 µM
- TGI (HOP-62 NSCLC): 32.9 µM
- TGI (T-47D breast): 58 µM
- TGI (KM12 colon): 30.3 µM
- TGI (SF-268 CNS): 39.3 µM
- TGI (IGROV1 ovarian): 30.9 µM
- TGI (SK-MEL-2 melanoma): 30.6 µM

Source: PubChem BioAssay (NCI)
